Measured values reported in ChEMBL document CHEMBL5042471, “Development and Application of Subtype-Selective Fluorescent Antagonists for the Study of the Human Adenosine A1 Receptor in Living Cells” (J Med Chem, 2021).

Experiments:
Type in all cases: cell-based
Adenosine receptor A1 [1] = biological target: T1, Adenosine receptor A1 (Homo sapiens, UniProt P30542); assay: Displacement of [3H]DPCPX from human A1 adenosine receptor expressed in Flp-In-CHO cells by radioligand competitive binding assay
T1 sequence (P30542 whole entry): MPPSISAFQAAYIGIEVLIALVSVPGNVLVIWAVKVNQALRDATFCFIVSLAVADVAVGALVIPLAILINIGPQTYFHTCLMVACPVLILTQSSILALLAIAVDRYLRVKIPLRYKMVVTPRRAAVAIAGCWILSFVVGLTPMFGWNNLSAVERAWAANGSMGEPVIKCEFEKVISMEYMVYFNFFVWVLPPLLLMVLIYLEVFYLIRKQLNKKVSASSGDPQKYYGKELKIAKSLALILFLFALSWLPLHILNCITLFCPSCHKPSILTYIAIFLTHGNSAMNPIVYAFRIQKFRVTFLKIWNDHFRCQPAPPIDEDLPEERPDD

Adenosine receptor A1 [2] = biological target: T1, Adenosine receptor A1; assay: Binding affinity to N-terminal NLuc tagged human A1 adenosine receptor expressed in Flp-In-CHO cells by competitive binding assay
Adenosine receptor A1 [3] = biological target: T2, Adenosine receptor A1 (Rattus norvegicus, UniProt P25099); assay: Binding affinity to N-terminal NLuc tagged rat A1 adenosine receptor expressed in Flp-In-CHO cells by competitive binding assay
T2 sequence (P25099 whole entry): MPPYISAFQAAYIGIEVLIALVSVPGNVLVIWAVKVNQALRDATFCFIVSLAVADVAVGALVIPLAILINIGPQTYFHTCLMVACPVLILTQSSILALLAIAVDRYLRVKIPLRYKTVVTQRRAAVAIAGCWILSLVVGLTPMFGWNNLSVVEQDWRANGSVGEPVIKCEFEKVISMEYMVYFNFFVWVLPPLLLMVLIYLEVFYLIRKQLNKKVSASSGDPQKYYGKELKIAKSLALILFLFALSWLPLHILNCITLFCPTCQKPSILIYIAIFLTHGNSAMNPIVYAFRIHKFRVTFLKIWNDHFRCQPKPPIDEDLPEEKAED

Ki (Adenosine receptor A1 [1]) | Kd (Adenosine receptor A1 [2]) | Kd (Adenosine receptor A1 [3]) | Compound
> 10000 nM |  |  | CCCn1c(=O)c2[nH]c(C34CC5CC(CC(C5)C3)C4)nc2n(CCCNC(=O)c2ccc(C(=O)NCCNC(=O)CCNC(=O)CCCCC[N+]3=C(/C=C/C=C/C=C4/N(C)c5ccc(S(=O)(=O)O)cc5C4(C)C)C(C)(C)c4cc(S(=O)(=O)[O-])ccc43)cc2)c1=O
14.8 nM |  |  | CCCn1c(=O)c2[nH]c(C34CCC(CCC(=O)NCCNC(=O)COCCNC(=O)OC(C)(C)C)(CC3)CC4)nc2n(CCC)c1=O
16.2 nM |  |  | CCCn1c(=O)c2[nH]c(C34CCC(C(=O)NCCCNC(=O)COCCNC(=O)OC(C)(C)C)(CC3)CC4)nc2n(CCC)c1=O
13.8 nM |  |  | CCCn1c(=O)c2[nH]c(C34CCC(C(=O)NCCNC(=O)COCCNC(=O)OC(C)(C)C)(CC3)CC4)nc2n(CCC)c1=O
> 10000 nM |  |  | CCCn1c(=O)c2[nH]c(C34CC5CC(CC(C5)C3)C4)nc2n(CCCNC(=O)c2ccc(C(=O)NCCNC(=O)CCCCC[N+]3=C(/C=C/C=C/C=C4/N(C)c5ccc(S(=O)(=O)O)cc5C4(C)C)C(C)(C)c4cc(S(=O)(=O)[O-])ccc43)cc2)c1=O
5.89 nM |  |  | CCCn1c(=O)c2[nH]c(C34CC5CC(CC(C5)C3)C4)nc2n(CCCNC(=O)c2ccc(C(=O)NCCNC(=O)CCCCCNC(=O)COc3ccc(/C=C/C4=[N+]5C(=Cc6ccc(-c7cccs7)n6[B-]5(F)F)C=C4)cc3)cc2)c1=O
12.9 nM |  |  | CCCn1c(=O)c2[nH]c(C34CCC(C(=O)NCCCNC(=O)CCNC(=O)CCNC(=O)OC(C)(C)C)(CC3)CC4)nc2n(CCC)c1=O
20.4 nM |  |  | CCCn1c(=O)c2[nH]c(C34CCC(C(=O)NCCNC(=O)CCCCCNC(=O)COc5ccc(/C=C/C6=[N+]7C(=Cc8ccc(-c9cccs9)n8[B-]7(F)F)C=C6)cc5)(CC3)CC4)nc2n(CCC)c1=O
11.2 nM |  |  | CCCn1c(=O)c2[nH]c(C34CCC(C(=O)NCCC(=O)NCCNC(=O)COCCNC(=O)OC(C)(C)C)(CC3)CC4)nc2n(CCC)c1=O
13.2 nM |  |  | CCCn1c(=O)c2[nH]c(C34CCC(CCC(=O)NCCNC(=O)COCCOCCNC(=O)OC(C)(C)C)(CC3)CC4)nc2n(CCC)c1=O
 | 33.9 nM | 35.5 nM | CCCn1c(=O)c2[nH]c(-c3ccc(OCC(=O)NCCNC(=O)CCNC(=O)CCCCNC(=O)CCCCNC(=O)COc4ccc(/C=C/C5=[N+]6C(=Cc7ccc(-c8cccs8)n7[B-]6(F)F)C=C5)cc4)cc3)nc2n(CCC)c1=O
